Values joined by “and” are separate entries in the source; they are usually repeats but may differ in a detail not shown here. Equal values may be shown once.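 In this assay, cells in 96-well plates receive the compound at five concentrations for 48 hours. Endpoints are linearly interpolated between the surrounding concentrations. GI50: concentration for 50% inhibition of growth.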 Active and inactive are the calls of the source. No stated cut-off is given here; in the data, active = GI50 up to about 1.1 µM and inactive = higher.

Here are results for four molecules from ChEMBL document CHEMBL1201862, “PubChem BioAssay data set” (2004).

Common to all, as to experiment: growth of human tumour cells (NCI), 48 h
Assay [1] relates to COLO 205.
Assay [2] relates to HCT-15.
The subject of assay [3] is IGROV-1.
Assay [4] deals with KM12.
Assay [5] relates to M14.
The test system of assay [6] is NCI-H226.
The subject of assay [7] is OVCAR-3.
Assay [8] deals with OVCAR-4.
Assay [9] relates to OVCAR-5.
The test system of assay [10] is SF-268.
Assay [11] deals with SK-MEL-28.
Assay [12] has as its system SK-OV-3.
Assay [13] relates to SN12C.
Assay [14] concerns SNB-19.
For assay [15], the system named is U-251.
Assay [16] concerns UO-31.
Assay [17] relates to NCI-H522.
Assay [18] relates to SNB-75.
Assay [19] has as its system MDA-MB-435.
Assay [20] has as its system PC-3.

On to `Cc1ccc(NC(=O)CC/C(CC(=O)C(C)(C)C)=N/NC(=O)c2cc3ccccc3cc2O)cc1C`, for which the GI50 in assay [1] is 39.1 µM (inactive); in [2] it was 27.7 µM; in assay [3], 32.8 µM (inactive); in [4] it was 36.6 µM (inactive); in [5], 32.5 µM (inactive); in [6] it was 37.2 µM (inactive). Also, the GI50 in assay [7] was 32.7 µM (inactive); in assay [8], 30.8 µM (inactive); in assay [9], 32.1 µM (inactive); in assay [10], 33.3 µM (inactive); in assay [11], 80 µM (inactive); in assay [12] it was 50 µM (inactive). Besides, the GI50 is 33.6 µM (inactive) in assay [13], 39.5 µM (inactive) in [14], 35.6 µM (inactive) in [15] and 38.6 µM (inactive) in assay [16].
For `CCCCCCCCCCSCC(CO)NC(=O)/C=C/c1c(C)[nH]c(=O)[nH]c1=O` (centres undefined), the GI50 in [1] is 762 nM (active) and 1.19 µM (inactive); in assay [3] it was 2.43 µM (inactive) and 2.48 µM (inactive); in assay [4] it was 1.42 µM (inactive) and 2.05 µM (inactive); in [17] it was 243 nM (active) and 393 nM (active); in [7] it was 916 nM (active) and 798 nM (active); in [9] it was > 21.2 µM (inactive) and > 27.5 µM (inactive). For the same molecule, the GI50 in [10] was 684 nM (active) and 723 nM (active); in assay [11], 1.77 µM (inactive) and 1.85 µM (inactive); in assay [13], 1.37 µM (inactive) and 1.09 µM (active); in assay [14], 881 nM (active) and 925 nM (active); in assay [18], 1.39 µM (inactive) and 1.32 µM (inactive); in assay [15], 532 nM (active) and 355 nM (active). Moreover, the GI50 in assay [16] was 10.5 µM (inactive) and 6.84 µM (inactive).
As for `COc1cccc(N2C(=O)CSC2c2c[nH]c3ccccc23)c1` (centres undefined), the GI50 in assay [1] was > 100 µM (inactive); in assay [2], over 100 µM; in [3] it was > 100 µM (inactive); in [4], > 100 µM (inactive); in assay [5], > 100 µM (inactive); in assay [19], > 100 µM (inactive). The GI50 in assay [17] is 97.9 µM (inactive); in assay [7], > 100 µM (inactive); in assay [8], 73.6 µM (inactive); in assay [9], > 100 µM (inactive); in assay [20] it was > 100 µM (inactive); in [10], > 100 µM (inactive). For the same molecule, the GI50 in assay [11], in [12], in [13], in assay [14], in assay [18] and in assay [15] was > 100 µM (inactive) each time. Besides, the GI50 in assay [16] is > 100 µM (inactive).
For `COc1ccc(C2=N/C(=C\c3ccccc3)C(=O)O2)cc1`, the GI50 in [2] is 52.1 µM; in assay [3] it was > 100 µM (inactive); in assay [4], 36.6 µM (inactive); in assay [5], > 100 µM (inactive); in [19], > 100 µM (inactive); in [6], 28.5 µM (inactive). Further, the GI50 in assay [7] was 53.7 µM (inactive); in assay [8], 37.1 µM (inactive); in [9] it was > 100 µM (inactive); in [20], > 100 µM (inactive); in assay [10], > 100 µM (inactive); in assay [11], > 100 µM (inactive). Besides, the GI50 in assay [12] is > 100 µM (inactive); in assay [14], 75.7 µM (inactive); in assay [18] it was 45.2 µM (inactive); in assay [15] it was 62.7 µM (inactive).
